Literature values as cited in article PMC4394704, “Structures and functions of insect arylalkylamine N-acetyltransferase (iaaNAT); a key enzyme for physiological and behavioral switch in arthropods” (Frontiers in Physiology, 2015).
Where two headings read alike, the source gives them in different places.

What was measured:
bNAT (basic aaNAT, NATb) = tested on: T1, bNAT (basic aaNAT, NATb); experiment: N-acetyltransferase activity of purified fraction; assay type: biochemical, Periplaneta americana; settings: co-substrate acetyl CoA; pH not given
T1 construct: native, purified from midgut; 28 kDa by SDS-PAGE; pH optimum 9-10
From the text: N-acetyltransferase activity of purified fraction on bNAT (basic aaNAT, NATb)

[1] = tested on: T2, aNAT (acidic aaNAT, NATa); experiment: N-acetyltransferase activity of purified fraction; assay type: biochemical, Periplaneta americana; settings: co-substrate acetyl CoA; pH not given
T2 construct: native, purified from testicular accessory gland; 28 kDa by SDS-PAGE; pH optimum 5-6
From the text: N-acetyltransferase activity of purified fraction on aNAT (acidic aaNAT, NATa)

[2] = molecular target: T3, apaaNAT (aaNAT from A. pernyi) (Antheraea pernyi, UniProt A2SZ52); experiment: N-acetyltransferase activity assay, recombinant enzyme; assay type: biochemical; settings: optimal pH 8.0 printed for the enzyme, read-out: apparent Km
T3 construct: cDNA expressed in Sf9 cells by baculovirus
T3 sequence (A2SZ52 1-261): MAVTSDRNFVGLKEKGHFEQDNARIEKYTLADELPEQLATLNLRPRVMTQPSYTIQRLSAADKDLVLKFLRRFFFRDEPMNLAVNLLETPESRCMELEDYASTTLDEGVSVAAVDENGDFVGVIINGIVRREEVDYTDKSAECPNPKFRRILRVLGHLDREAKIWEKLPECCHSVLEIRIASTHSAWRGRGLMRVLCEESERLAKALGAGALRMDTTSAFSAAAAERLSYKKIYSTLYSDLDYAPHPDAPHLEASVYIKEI

SMILES: NC[C@H](O)c1ccc(O)cc1 [Octopamine]
- Km (bNAT (basic aaNAT, NATb)): 385 µM
- Km [1]: 20 µM

SMILES: COc1ccc2[nH]cc(CCN)c2c1 [Methoxy-TN]
- Km (bNAT (basic aaNAT, NATb)): 200 µM
- Km [1]: 25 µM

SMILES: NCCc1c[nH]c2ccc(O)cc12 [5HT]
- Km (bNAT (basic aaNAT, NATb)): 325 µM
- Km [1]: 50 µM

SMILES: CC(=O)SCCNC(=O)CCNC(=O)[C@H](O)C(C)(C)COP(=O)(O)OP(=O)(O)OC[C@H]1O[C@@H](n2cnc3c(N)ncnc32)[C@H](O)[C@@H]1OP(=O)(O)O [acetyl CoA]
- Km [2]: 1.42 µM

SMILES: NCCc1c[nH]c2ccccc12 [tryptamine]
- Km (bNAT (basic aaNAT, NATb)): 1330 µM
- Km [1]: 25 µM
- Km ([2]; substrate inhibition above 0.03 mM with 0.11 mM acetyl CoA): 3.31 µM

SMILES: NCCc1ccc(O)c(O)c1 [Dopamine]
- Km (bNAT (basic aaNAT, NATb)): 1520 µM
- Km [1]: 25 µM

SMILES: NCCc1ccc(O)cc1 [Tyramine]
- Km (bNAT (basic aaNAT, NATb)): 15.7 µM
- Km [1]: 28.6 µM

SMILES: NC[C@H](O)c1ccc(O)c(O)c1 [Norepinephrine]
- Km [1]: 28.6 µM
